From patent US20230241071A1, “COMBINATION TREATMENT OF LIVER DISORDERS” (Terns Pharmaceuticals, Inc., priority 2021, published 2023)
Marks after values point to notes of the source that are not given here.

How the values were obtained:
[1] = system: rat CDHFD+NaNO2 NASH model; assay: Rat CDHFD+NaNO2 NASH model, liver RNAseq; format: in vivo; settings: 8 wk, Compound 3 3 mg/kg, Compound 1 25 mg/kg; for Down DEGs / Total DEGs / Up DEGs: liver RNAseq vs vehicle NASH control, adj. p<0.01, fold-change ≥1.5
Experimental: Animal handling: After arrival, the rats were left for a 2-week acclimation period, during which they were accustomed to the animal facility staff and trained on the procedure of oral gavage. After 2 weeks the animals were put on CHDFD (choline deficient high fat diet) and pre-fed for 4 weeks. Then the rats were started on treatment with test compounds, and 3× per week i.p. NaNO2 injections, while they remained on CDHFD, for an additional 8 weeks. NaNO2 was administered at 25 mg/kg i.p. dissolved in PBS 3 times a week (on Mondays, Wednesdays, and Fridays) for 8 weeks while on CDHFD.
(§1) Final Sacrifice: Half of the animals of each treatment group were terminated on day 84. The other half of the animals in each group were terminated on the following day, day 85. On the day of sacrifice the animals were fasted for 2 h and received a final treatment with the respective test substance. After the final compound treatment, the animals had no more access to food until sacrifice. At 4 h after the last administration all animals were sacrificed and livers were sampled for further analysis.
Animal handling: After arrival, the rats were left for a 2-week acclimation period, during which they were accustomed to the animal facility staff and trained on the procedure of oral gavage. After 2 weeks the animals were placed on a choline deficient high fat diet (CDHFD) and pre-fed for 4 weeks to induce steatosis and a NASH-like disease phenotype. Rats were then treated with test compounds for an additional 8 weeks while on CDHFD. Concomitant with compound treatment, rats were administered sodium nitrite (NaNO2, 25 mg/kg dissolved in PBS) by triweekly intraperitoneal (IP) injection to induce liver fibrosis.
as §1, with “2 hours” for “2 h”, “4 hours” for “4 h”
Sampling and analysis: Small liver pieces were harvested into RNAlater (Thermo Fisher Scientific Dreieich Germany) and stored at −20° C. prior to RNA sequencing (RNAseq) at MedGenome Inc. RNAseq analysis was performed on liver tissue by Illumina sequencing using standard methodologies. Briefly, RNAseq libraries (n=5 per group) were generated using Illumina Truseq stranded mRNA kits and sequencing was performed on a NovaSeq 6000 sequencer. Alignment was performed using STAR (v2.7.3a) aligner and reads mapping to ribosomal and mitochondrial genome were removed prior to alignment. Raw read counts were estimated using HTSeq (v0.11.1) and normalized using DESeq2 (v2.22.2). Differentially expressed genes (DEGs) were determined using DESeq2 (R Bioconductor package).

mouse model of NASH = assay: Mouse NASH model (high fat diet + CCl4), Compound 3 and Compound 2 alone and combined; format: in vivo; settings: liver RNAseq vs vehicle NASH control, 28 d; Compound 3 3 mg/kg, Compound 2 1 mg/kg; adj. p<0.05, fold-change >1.5
Experimental: C57BL/6J mice were fed a high fat diet for 10 weeks to induce obesity (>38 g BW). Obese mice were injected intraperitoneally (i.p.) twice a week for four weeks with […] 25% CCl4 (formulated in olive oil) to induce fibrosis, and one group of normal BW mice were injected i.p. twice a week for four weeks with olive oil to serve as a healthy control. During the same dosing period, obese mice were fed orally once a day for 28 days with vehicle, Compound 3 or Compound 2 as single agents or in combination. On CCl4 dosing days, CCl4 was administered at 4 hours post compound or vehicle dosing. On day 27, all animals were fasted for about 16 hours before terminal euthanasia. On day 28, all animals were sacrificed and liver samples were collected for whole transcriptome analysis by RNA sequencing (RNAseq). RNAseq library (n=5 per group) preparation and sequencing was performed using Illumina standard protocols. Alignment of sequencing reads was performed using STAR aligner software and read counts were estimated using RSEM. Differentially expressed genes (compared to vehicle-treated NASH control mice) were determined using EdgeR software. Gene ontology analysis was performed using Advaita software with fold-change and adjusted p-value cutoffs of >1.5 and <0.05, respectively. Gene ontologies were derived from the Gene Ontology Consortium database (2019 Apr. 26) (Ashburner et al., Gene ontology: Tool for the unification of biology. Nature Genetics 25(1): 25-9 (2000); Gene Ontology Consortium, Creating the Gene Ontology Resource: Design and Implementation. Genome Research 11: 1425-1433 (2001)).
Gene ontology (GO) enrichment analysis was used to understand the potential biological consequences of the results in Table 22. To perform GO term enrichment analysis, the number (i.e., enrichment) of DEGs annotated for a particular term (i.e. biology process) was compared to the number of DEGs expected solely by chance. An over-representation approach was used to compute statistical significance (p-value) of observing at least the given number of DEGs; p-values were corrected for multiple comparisons.
On day 28 of treatment as described in Example 14, animals were euthanized for sample collections. Analysis of cholesterol, triglycerides, and ALT was done using a Hitachi 7180 clinical analyzer. Liver samples were processed for lipid quantification (colorimetric assays, SpectraMax 340PC384), histology, and RNA analysis. RNAseq library preparation (n=5 per group) and sequencing was performed using Illumina standard protocols. Alignment of sequencing reads was performed using STAR aligner and read counts were estimated using RSEM. Differentially expressed genes (DEGs) relative to NASH control were determined using EdgeR. Gene ontology analysis was performed using Advaita software.

[2] = Trough plasma compound levels in DIO-GAN mice; format: in vivo, mouse; settings: plasma 21-24 h post final dose
Experimental: Terminal plasma samples were harvested by cardiac puncture approximately 21-24 hours after the last administration of compound(s). Terminal plasma samples were analyzed by high resolution LC-MS/MS using a Triple Quad 6500+ instrument. 20 μL of plasma sample was mixed with 200 μL of internal standard solution (100 ng/mL Labetalol+100 ng/mL Tolbutamide in acetonitrile), vortexed, and centrifuged at 4,000 rpm for 15 min at 4° C. […] The internal standard 1 (retention time: 0.87 min) and standard 2 (retention time: 0.96 min) were used for quantification of Compound 3 (retention time: 0.87 min) and Compound 2 (retention time: 0.97 min), respectively. The internal standard (retention time: 0.76 min), was used for quantification of the glucuronide metabolite of Compound 3 (retention time: 0.77 min). Calibration curves (1-3000 ng/mL) were generated in a matrix of mouse plasma (pooled vehicle control) for each analyte.

[3] = group Combo-high, Compound 3 10 mg/kg + Compound 2 10 mg/kg (14)
[4] = group Combo-med, Compound 3 10 mg/kg + Compound 2 2 mg/kg (16)

SMILES: COC1CCN(c2ncc(OC/C(=C/F)CN)cn2)CC1 [Compound 1, (E)-3-fluoro-2-(((2-(4-methoxypiperidin-1-yl)pyrimidin-5-yl)oxy)methyl)prop-2-en-1-amine]
- Down DEGs [1]: 641
- Total DEGs [1]: 847
- Up DEGs [1]: 206

SMILES: N#Cc1nn(-c2cc(Cl)c(Oc3n[nH]c(=O)c4ccccc34)c(Cl)c2)c(=O)[nH]c1=O [Compound 2, 2-(3,5-dichloro-4-((4-oxo-3,4-dihydrophthalazin-1-yl)oxy)phenyl)-3,5-dioxo-2,3,4,5-tetrahydro-1,2,4-triazine-6-carbonitrile]
- Down DEGs (mouse model of NASH): 635
- Total DEGs (mouse model of NASH): 1113
- Up DEGs (mouse model of NASH): 478
- Mean trough analyte concentration (SD) [2, 3]: 143.0 (87.9) ng/mL
- Mean trough analyte concentration (SD) [2, 4]: 49.5 (42.9) ng/mL
- Mean trough analyte concentration (SD) ([2]; group Compound 2-high 10 mg/kg (16)): 320.0 (189.9) ng/mL
- Mean trough analyte concentration (SD) ([2]; group Compound 2-med 2 mg/kg (15)): 135.5 (62.0) ng/mL

SMILES: Cn1cc(C(=O)O)c2ccc(N3CCC(OCc4c(-c5c(Cl)cccc5Cl)noc4C4CC4)CC3)cc21 [Compound 3]
- Down DEGs (mouse model of NASH): 271
- Total DEGs (mouse model of NASH): 617
- Up DEGs (mouse model of NASH): 346
- Down DEGs [1]: 118
- Total DEGs [1]: 309
- Up DEGs [1]: 191
- Fabp2 differential gene expression relative to vehicle control ([1]; liver RNAseq): −1.02* log2-fold change
- Irs1 differential gene expression relative to vehicle control ([1]; liver RNAseq): −0.03 log2-fold change
- Irs2 differential gene expression relative to vehicle control ([1]; liver RNAseq): 0.27 log2-fold change
- Ldlr differential gene expression relative to vehicle control ([1]; liver RNAseq): 0.4 log2-fold change
- Ldlrap1 differential gene expression relative to vehicle control ([1]; liver RNAseq): −0.07 log2-fold change
- Lrp1 differential gene expression relative to vehicle control ([1]; liver RNAseq): 0.51 log2-fold change
- Lrp2 differential gene expression relative to vehicle control ([1]; liver RNAseq): 0.33 log2-fold change
- Ppara differential gene expression relative to vehicle control ([1]; liver RNAseq): 0.36 log2-fold change
- Ppargcla differential gene expression relative to vehicle control ([1]; liver RNAseq): 0.25 log2-fold change
- Rxra differential gene expression relative to vehicle control ([1]; liver RNAseq): 0.03 log2-fold change
- Slc27a1 differential gene expression relative to vehicle control ([1]; liver RNAseq): 0.16 log2-fold change
- Slc27a5 differential gene expression relative to vehicle control ([1]; liver RNAseq): 0.5 log2-fold change
- Vegfa differential gene expression relative to vehicle control ([1]; liver RNAseq): 0.48 log2-fold change
- Vegfc differential gene expression relative to vehicle control ([1]; liver RNAseq): −0.28 log2-fold change
- Vldlr differential gene expression relative to vehicle control ([1]; liver RNAseq): −0.58 log2-fold change
- Mean trough analyte concentration (SD) [2, 3]: 3.3 (1.8) ng/mL
- Mean trough analyte concentration (SD) [2, 4]: 5.8 (3.5) ng/mL
- Mean trough analyte concentration (SD) ([2]; group Compound 3 10 mg/kg (16)): 7.4 (3.8) ng/mL
